In patent US12085575B2, “Compositions and methods for detecting proteinopathies” (BOARD OF SUPERVISORS OF LOUISIANA STATE UNIVERSITY AND …, priority 2011, dated 2024):
Residues, ends and D or L forms follow the SMILES beside them. *: point of attachment. Cbz = O=C(OCc1ccccc1)*

Columns and labels:
[1] = tested on: HA-polyubiquitylated proteins; experiment: UV-induced degradation of HA-polyubiquitylated proteins (anti-HA Western blot); format: cell-based, human; settings: for UV-induced degradation of HA-Lys48-linked polyubiquitylated proteins: HA-Lys48 only ubiquitin construct; for UV-induced decrease of HA-polyubiquitylated proteins: MG132 1 μM or Bafl 1 nM 18 h, 3 h recovery; for UV-induced decrease of HA-polyubiquitylated proteins / UV-induced degradation of HA-polyubiquitylated proteins: UV 25 mJ/m2; for UV-induced degradation of HA-polyubiquitylated proteins: MG132 1 nm or 3-MA 10 nm for 18 h
Procedure: Immunoblotting Analysis of HA-ubiquitin conjugated proteins in cells exposed to UV radiation. Cells ([…]) were transfected with a hemagglutinin (HA)-ubiquitin plasmid using the PolyFect transfection reagent (Qiagen; Valencia, CA) as described (24). Twenty-four h after transfection, cells were treated with either proteasome inhibitor MG132 (1 μM) (Boston Biochemicals; Cambridge, MA) or autophagy inhibitor Bafilomycin A1 (Bafl) (1 nM) (Sigma-Aldrich) or 3-Methyladenine (3-MA) (100 nM) for 18 h. Cells were exposed to UV radiation (25 mJoules, using BioRad GS Gene Linker™ UV Chamber) and/or left untreated. Cells were then allowed to recover in the presence of inhibitors for 3 hr. Cell lysis, SDS-PAGE, and immunoblotting analysis to detect HA-ubiquitin conjugated proteins using anti-HA antibodies was carried out as described herein.
Decrease in the steady state levels of polyubiquitylated proteins could be due to their increased deubiquitylation or increased degradation via the 26S proteasome. Also, the ubiquitin antibody used in the experiment herein is known to cross-react with free ISG15/UCRP (44), and ISG15 protein is elevated in A-T cells (20). An HA-ubiquitin construct was transfected and then the steady state levels of the HA-polyubiquitylated proteins was assessed (to rule out the possibility of protein polyubiquitylation versus protein polyISGlyation), in the absence or presence of the proteasome inhibitor MG132 (to rule out the possibility of protein deubiquitylation versus protein degradation), in UV treated A-T and ATM+ cells. In FIG. 8B, A-T and ATM+ cells were transfected with a HA-ubiquitin construct. Cells were then treated with MG132 (1 μM) or Bafl (1 nM) for 18 hours and exposed to UV radiation (25 mJ/m2). After recovery in the presence of inhibitors for an additional three hours, cells were lysed. Cell extracts were analyzed by Western blotting for HA-polyubiquitylated proteins and actin using anti-HA and anti-actin antibodies respectively. Intensity of the total HA-polyubiquitylated proteins was quantitated using BioRad Quantity One software and results shown in FIG. 8C.
To complement the results shown in FIG. 8B, another construct was used that expresses HA-ubiquitin and that can preferentially make polyubiquitin chains linked through Lys48 on the substrates (20). In FIG. 8D, A-T and ATM+ cells were transfected with HA-Lys48 only ubiquitin construct. The inhibitor and UV treatments, cell lysis, SDS-PAGE, and immunoblotting analysis to detect HA-ubiquitin conjugated proteins using anti-HA antibodies was carried out as described herein. The experiment was repeated two times with the reproducible results. Similar results were obtained using this distinct HA-ubiquitin construct (FIG. 8D) as obtained herein (FIG. 8B); UV induced MG132- and Bafilomycin-resistant degradation of HA-Lys48-linked polyubiquitylated proteins in A-T cells, but not in ATM+ cells.
For FIG. 14A, HA-ubiquitin-transfected A-T/LV-control shRNA cells were exposed to UV (25 mJ/m2). After three hours of recovery, assessment of HA-polyubiquitylated proteins was carried out as described herein for FIG. 8B. In FIG. 14B, HA-ubiquitin-transfected A-T/LV-control shRNA cells were treated with Bafl (1 nm for 18 h). Cells were then exposed to UV (25 mJ/m2). After three hours of recovery in the presence of the inhibitor, assessment of HA-polyubiquitylated proteins was carried out as described for FIG. 14A. For FIG. 14C, HA-ubiquitin-transfected A-T/LV-control shRNA cells were treated with MG132 (1 nm for 18 h). Cells were then exposed to UV (25 mJ/m2). After three hours of recovery in the presence of the inhibitor, assessment of HA-polyubiquitylated proteins was carried out as described for FIG. 14A. For FIG. 14D, HA-ubiquitin-transfected A-T/LV-control shRNA cells were treated with 3-MA (10 nm for 18 h). Cells were then exposed to UV (25 mJ/m2). […]

[2] = tested on: polyubiquitylated proteins; experiment: Camptothecin-induced degradation of polyubiquitylated proteins in A-T cells; format: cell-based, human; settings: CPT 10 μm with Bafl 1 nm, 24 hr
Procedure: To test the generality of this observation, the anticancer drug camptothecin (CPT), a genotoxic agent (37, 48-50), which is known to sensitize A-T cells (37), like UV, was used to induce degradation of polyubiquitylated proteins in A-T cells. In FIG. 8E, A-T cells were treated with camptothecin (CPT; 10 μm) in the presence or absence of Bafl (1 nm) for 24 hr. Ubiquitin conjugated proteins using anti-ubiquitin antibodies were detected as described herein for FIG. 8A. The experiment was repeated three times.

LC3 = experiment: UV-induced LC3 degradation in organotypic cerebellar brain slices; format: cell-based, mice
Procedure: In FIG. 19B, LC3 degradation in UV-treated A-T brain slices is shown. The same tissue lysates prepared from A-T and ATM+/− brains used in FIG. 17A were analyzed for LC3 and actin proteins. Intensity of the total LC3 and corresponding actin bands was quantitated using BioRad Quantity One software. The percent changes in LC3 amounts were calculated as a ratio between band intensities of LC3 (I and II) and actin (bar chart). In FIGS. 19A and 19B, the bar graphs have the following legends: bars 1: No drug and +Bafl controls; bars 2: +UV; and bars 3: +Bafl+UV.

[3] = tested on: polyubiquitylated proteins; experiment: UV-induced degradation of polyubiquitylated proteins in organotypic cerebellar brain slices; format: cell-based, mice; settings: Bafilomycin A1 18 hrs, UV 150 mJ
Procedure: Experiments were conducted to determine if UV would induce degradation of the ubiquitin-conjugated cellular proteins in A-T organotypic brain slices grown in culture, similar to the findings described herein for A-T cells (See FIGS. 8A-8B). Two-month-old mice were used irrespective of the gender. Cerebellar organotypic brain slices (400 μm thick) from three mice were obtained using a McIlwain tissue chopper (The Mickle Lab Eng. Co. Ltd). Slices from two A-T mice and three ATM+/− mice were pooled and randomly placed on Millicell culture plate inserts (Millipore, MA). Brain slices were then incubated for 1 day in OptiMem-based medium at 37° C. in a humidified atmosphere of 5% CO2 and 95% air. One day later, slices were treated with Bafilomycin A1 for 18 hrs. Slices were then exposed to UV (150 mJ)) or left untreated. After three hours, tissue lysates were prepared as described herein. Lysates were then analyzed by Western analysis using anti-ubiquitin antibody as described herein, and the results shown in FIG. 17A. Intensity of the total polyubiquitylated proteins and free ubiquitin was quantitated using BioRad Quantity One software. All control values (−UV and +Bafl) were normalized to 100%, and values for experimental treatments were expressed as percent variations over control to give the results shown in FIG. 17B. […]

| Structure (SMILES) | UV-induced degradation of HA-Lys48-linked polyubiquitylated proteins ([1]; A-T cells) | UV-induced decrease of HA-polyubiquitylated proteins ([1]; A-T cells) | UV-induced decrease of HA-polyubiquitylated proteins ([1]; ATM+ cells) | CPT-mediated degradation of polyubiquitylated proteins [2] | aberrant autophagic flux (degradation) of autophagy substrates under genotoxic stress (LC3; A-T cerebellar brain slices) | UV-induced autophagic flux (LC3 degradation) (LC3; ATM+/− cerebellar slices) | UV-mediated degradation of polyubiquitylated proteins ([3]; A-T brain slices) | UV-induced degradation of polyubiquitylated proteins ([3]; ATM+/− brain slices) | UV-induced degradation of HA-polyubiquitylated proteins ([1]; A-T/LV-ISG15 shRNA (ISG15-silenced) cells) | UV-induced degradation of HA-polyubiquitylated proteins ([1]; A-T/LV-control shRNA cells) |
| --- | --- | --- | --- | --- | --- | --- | --- | --- | --- | --- |
| CO/C1=C\C(C)=C\[C@@H](C)[C@@H](O)[C@@H](C)C/C(C)=C/C=C/[C@H](OC)[C@@H]([C@@H](C)[C@@H](O)[C@H](C)[C@@]2(O)C[C@@H](O)[C@H](C)[C@@H](C(C)C)O2)OC1=O [Bafilomycin A1] | resistant | failed to block | significantly blocked | failed to protect | resistant | protected | failed to protect | markedly protected | – | – |
| CC(C)C[C@@H](C=O)NC(=O)[C@H](CC(C)C)NC(=O)[C@H](CC(C)C)NC(=O)OCc1ccccc1 [MG132] (Cbz-Leu-Leu-Leu-aldehyde) | resistant | failed to protect | completely blocked | – | – | – | – | – | completely block | failed to block |
